# Assay results published in publication PMC9207812 (ACS chemical biology, 2022).
# No end group written: not given here.
# Key:
# Type in all cases: binding
# WDR5 D172A [1] = biological target: T1, WDR5 D172A (Homo sapiens, UniProt P61964, D172A); test: Steady-state fluorescence polarization (FP), D172A
# WDR5 Y260H [2] = biological target: T2, WDR5 Y260H (Homo sapiens, UniProt P61964, Y260H); test: Steady-state fluorescence polarization (FP), Y260H
# WDR5 S218F [3] = biological target: T3, WDR5 S218F (Homo sapiens, UniProt P61964, S218F); test: Biolayer interferometry (BLI), S218F; settings: for koff: pH 7.5, read-out: koff (dissociation rate constant); for kon: pH 7.5, read-out: kon (association rate constant)
# WDR5 F133L [4] = biological target: T4, WDR5 F133L (Homo sapiens, UniProt P61964, F133L); test: Biolayer interferometry (BLI), F133L; settings: for increase in KD-BLI: F133L versus native WDR5; for koff: pH 7.5, read-out: koff (dissociation rate constant); for kon: pH 7.5, read-out: kon (association rate constant)
# WDR5 D172A [5] = biological target: T1, WDR5 D172A; test: Biolayer interferometry (BLI), D172A; settings: for koff: pH 7.5, read-out: koff (dissociation rate constant); for kon: pH 7.5, read-out: kon (association rate constant)
# WDR5 S218F [6] = biological target: T3, WDR5 S218F; test: Steady-state fluorescence polarization (FP), S218F
# WDR5 F133L [7] = biological target: T4, WDR5 F133L; test: Steady-state fluorescence polarization (FP), F133L
# WDR5 S175L [8] = biological target: T5, WDR5 S175L (Homo sapiens, UniProt P61964, S175L); test: Steady-state fluorescence polarization (FP), S175L
# WDR5 Y260H [9] = biological target: T2, WDR5 Y260H; test: Biolayer interferometry (BLI), Y260H; settings: for koff: pH 7.5, read-out: koff (dissociation rate constant); for kon: pH 7.5, read-out: kon (association rate constant)
# WDR5 P216L [10] = biological target: T6, WDR5 P216L (Homo sapiens, UniProt P61964, P216L); test: Biolayer interferometry (BLI), P216L; settings: for koff: pH 7.5, read-out: koff (dissociation rate constant); for kon: pH 7.5, read-out: kon (association rate constant)
# WDR5 S175L [11] = biological target: T5, WDR5 S175L; test: Biolayer interferometry (BLI), S175L; settings: for koff: pH 7.5, read-out: koff (dissociation rate constant); for kon: pH 7.5, read-out: kon (association rate constant)
# WDR5 P216L [12] = biological target: T6, WDR5 P216L; test: Steady-state fluorescence polarization (FP), P216L
Compound,Kd (WDR5 D172A [1]),Kd (WDR5 Y260H [2]),Kd (WDR5 S218F [3]),koff (WDR5 S218F [3]),kon (WDR5 S218F [3]),Kd (WDR5 F133L [4]),koff (WDR5 F133L [4]),Kd (WDR5 D172A [5]),koff (WDR5 D172A [5]),kon (WDR5 D172A [5]),Kd (WDR5 S218F [6]),Kd (WDR5 F133L [7]),Kd (WDR5 S175L [8]),Kd (WDR5 Y260H [9]),koff (WDR5 Y260H [9]),Kd (WDR5 P216L [10]),koff (WDR5 P216L [10]),Kd (WDR5 S175L [11]),koff (WDR5 S175L [11]),Kd (WDR5 P216L [12]),other results
CC(C)[C@H](NC(=O)[C@H](Cc1c[nH]cn1)NC(=O)[C@@H](N)CCC(=O)O)C(=O)N[C@H](C(=O)NCC(=O)N[C@@H](CS)C(=O)N[C@@H](C)C(=O)N[C@@H](CCCNC(=N)N)C(=O)N[C@@H](CO)C(=O)N[C@@H](CCC(=O)O)C(=O)NCC(=O)N[C@@H](Cc1ccccc1)C(=O)N[C@@H](Cc1ccc(O)cc1)C(=O)N[C@H](C(N)=O)[C@@H](C)O)[C@@H](C)O [SETd1BWin],18 ± 1 nM,23 ± 2 nM,360 ± 20 nM,0.023 ± 0.002 s⁻¹,63000 ± 6000 M⁻¹ s⁻¹,6000 nM,0.24 ± 0.02 s⁻¹,260 ± 10 nM,0.023 ± 0.003 s⁻¹,89000 ± 14000 M⁻¹ s⁻¹,37 ± 1 nM,820 ± 30 nM,11 ± 1 nM,230 ± 10 nM,0.023 ± 0.003 s⁻¹,370 ± 40 nM,0.03 ± 0.005 s⁻¹,56 ± 3 nM,0.0049 ± 0.0003 s⁻¹,28 ± 2 nM,increase in KD-BLI (WDR5 F133L [4]): between one and two orders of magnitude; kon (WDR5 F133L [4]): 43000 ± 12000 M⁻¹ s⁻¹; kon (WDR5 Y260H [9]): 100000 ± 10000 M⁻¹ s⁻¹; kon (WDR5 P216L [10]): 80000 ± 8000 M⁻¹ s⁻¹; kon (WDR5 S175L [11]): 84000 ± 6000 M⁻¹ s⁻¹
EHQTGSARSEGYYP-NH2 [SETd1AWin],61 ± 2 nM,140 ± 20 nM,830 ± 110 nM,0.046 ± 0.007 s⁻¹,56000 ± 4000 M⁻¹ s⁻¹,30000 nM,0.69 ± 0.04 s⁻¹,900 ± 240 nM,0.11 ± 0.03 s⁻¹,130000 ± 10000 M⁻¹ s⁻¹,100 ± 10 nM,5700 nM,92 ± 7 nM,1100 nM,0.098 ± 0.029 s⁻¹,380 ± 20 nM,0.033 ± 0.004 s⁻¹,1400 nM,0.089 ± 0.03 s⁻¹,39 ± 2 nM,increase in KD-BLI (WDR5 F133L [4]): between one and two orders of magnitude; kon (WDR5 F133L [4]): 26000 ± 3000 M⁻¹ s⁻¹; kon (WDR5 Y260H [9]): 88000 ± 13000 M⁻¹ s⁻¹; kon (WDR5 P216L [10]): 86000 ± 8000 M⁻¹ s⁻¹; kon (WDR5 S175L [11]): 61000 ± 7000 M⁻¹ s⁻¹
INPTGCARSEPKIL-NH2 [MLL2Win],25 ± 4 nM,34 ± 4 nM,640 ± 20 nM,0.025 ± 0.002 s⁻¹,40000 ± 2000 M⁻¹ s⁻¹,8300 nM,0.14 ± 0.02 s⁻¹,240 ± 10 nM,0.014 ± 0.001 s⁻¹,57000 ± 6000 M⁻¹ s⁻¹,94 ± 7 nM,2100 nM,11 ± 1 nM,200 ± 20 nM,0.013 ± 0.001 s⁻¹,200 ± 50 nM,0.011 ± 0.002 s⁻¹,130 ± 10 nM,0.0063 ± 0.0001 s⁻¹,18 ± 3 nM,increase in KD-BLI (WDR5 F133L [4]): between one and two orders of magnitude; kon (WDR5 F133L [4]): 16000 ± 1000 M⁻¹ s⁻¹; kon (WDR5 Y260H [9]): 66000 ± 9000 M⁻¹ s⁻¹; kon (WDR5 P216L [10]): 56000 ± 8000 M⁻¹ s⁻¹; kon (WDR5 S175L [11]): 49000 ± 4000 M⁻¹ s⁻¹
LNPHGAARAEVYLS-NH2 [MLL4Win],78 ± 3 nM,130 ± 10 nM,3400 nM,0.071 ± 0.001 s⁻¹,20000 ± 2000 M⁻¹ s⁻¹,≥ 100000 nM,> 1 s⁻¹,1400 nM,0.051 ± 0.01 s⁻¹,37000 ± 4000 M⁻¹ s⁻¹,420 ± 40 nM,8800 nM,280 ± 30 nM,,0.047 ± 0.028 s⁻¹,9900 nM,0.22 ± 0.05 s⁻¹,4200 nM,0.13 ± 0.004 s⁻¹,690 ± 60 nM,kon (WDR5 Y260H [9]): 24000 ± 3000 M⁻¹ s⁻¹; kon (WDR5 P216L [10]): 19000 ± 3000 M⁻¹ s⁻¹; kon (WDR5 S175L [11]): 30000 ± 1000 M⁻¹ s⁻¹
LNPHGSARAEVHLS-NH2 [MLL1Win],5600 nM,9700 nM,≥ 100000 nM,> 1 s⁻¹,,,,≥ 100000 nM,> 1 s⁻¹,,8100 nM,> 53000 nM,4800 nM,≥ 100000 nM,> 1 s⁻¹,≥ 100000 nM,> 1 s⁻¹,≥ 100000 nM,> 1 s⁻¹,> 14600 nM,
VNPTGCARSEPKMS-NH2 [MLL3Win],12 ± 1 nM,22 ± 2 nM,530 ± 20 nM,0.021 ± 0.003 s⁻¹,39000 ± 5000 M⁻¹ s⁻¹,3700 nM,0.1 ± 0.01 s⁻¹,140 ± 10 nM,0.0093 ± 0.0019 s⁻¹,65000 ± 13000 M⁻¹ s⁻¹,80 ± 7 nM,1000 nM,23 ± 1 nM,110 ± 20 nM,0.0077 ± 0.0006 s⁻¹,200 ± 30 nM,0.011 ± 0.003 s⁻¹,330 ± 20 nM,0.016 ± 0.002 s⁻¹,19 ± 1 nM,increase in KD-BLI (WDR5 F133L [4]): between one and two orders of magnitude; kon (WDR5 F133L [4]): 36000 ± 21000 M⁻¹ s⁻¹; kon (WDR5 Y260H [9]): 64000 ± 2000 M⁻¹ s⁻¹; kon (WDR5 P216L [10]): 53000 ± 7000 M⁻¹ s⁻¹; kon (WDR5 S175L [11]): 49000 ± 3000 M⁻¹ s⁻¹
